Where a name gives a salt, the structure may show the parent alone. Read-outs that look alike come from different tables or passages of the source.
Test system: dopaminergic neurons
Protocol: RNAs isolated from NSCs and neurons with and without drug treatments were hybridized to Illumina HumanRef-8 BeadChip (Illumina, Inc., San Diego, Calif., performed by Microarray core facility at the Burnham Institute for Medical Research). The Illumina array data were normalized by the quantile method, and then transformed log 2 ratio values for a zero mean for expression values of each gene across all samples. The statistical and bioinformatics analyses were conducted by using R and the bioconductor package (www.bioconductor.org). The gene set enrichment analysis was conducted using the GSEA software (www.broad.mit.edu/gsea).

[1] = Amiloride sensitive Na channels, 4 hours of exposure
[2] = Amine transporters, 4 hours of exposure
[3] = Ca activated K channels, 4 hours of exposure
[4] = Calcium channels, 4 hours of exposure
[5] = Cl channels, 4 hours of exposure
[6] = Delayed rectifier K channels, 4 hours of exposure
[7] = H ion transporters, 4 hours of exposure
[8] = Rectifier K channels, 4 hours of exposure
[9] = Voltage gated Na channels, 4 hours of exposure

## CCCCc1oc2ccccc2c1C(=O)c1cc(I)c(OCCN(CC)CC)c(I)c1 [Amiodarone Hydrochloride]
[1]
  ACCN1 gene expression, Treated DA Neuron: 387.4
  ACCN2 gene expression, Treated DA Neuron: 862.7
  ACCN3 gene expression, Treated DA Neuron: 35.7
[2]
  SLC1A2 gene expression, Treated DA Neuron: 809.7
  SLC1A3 gene expression, Treated DA Neuron: 2926
  SLC6A3 gene expression, Treated DA Neuron: 23.4
  SLC6A9 gene expression, Treated DA Neuron: 36570.5
  SLC6A12 gene expression, Treated DA Neuron: 10.8
Amine transporters, first line for this gene, 4 hours of exposure
  ATP1A1 gene expression, Treated DA Neuron: 426.9
Amine transporters, second line for this gene, 4 hours of exposure
  ATP1A1 gene expression, Treated DA Neuron: 471
[3]
  KCNMB1 gene expression, Treated DA Neuron: 44.8
  KCNN1 gene expression, Treated DA Neuron: 48.4
  KCNN2 gene expression, Treated DA Neuron: 55.6
  KCNN3 gene expression, Treated DA Neuron: 181.7
[4]
  CACNA1A gene expression, Treated DA Neuron: 64.4
  CACNA1C gene expression, Treated DA Neuron: 146.9
  CACNB2 gene expression, Treated DA Neuron: 155.2
  CACNG2 gene expression, Treated DA Neuron: 123.8
[5]
  CLCN2 gene expression, Treated DA Neuron: 24
  CLCN3 gene expression, Treated DA Neuron: 541.2
  CLCN6 gene expression, Treated DA Neuron: 998.5
  CLCN7 gene expression, Treated DA Neuron: 1261
  CLIC1 gene expression, Treated DA Neuron: 22.9
[6]
  KCNA5 gene expression, Treated DA Neuron: 99.9
  KCNB1 gene expression, Treated DA Neuron: 145.4
  KCNB2 gene expression, Treated DA Neuron: 94.5
[7]
  ATP5B gene expression, Treated DA Neuron: 5217.1
  ATP6V0A2 gene expression, Treated DA Neuron: 131.3
  ATP6V0D1 gene expression, Treated DA Neuron: 2920.7
  ATP6V1A gene expression, Treated DA Neuron: 2621.5
  ATP6V1B2 gene expression, Treated DA Neuron: 724.8
  SLC2A1 gene expression, Treated DA Neuron: 87.1
  SLC2A11 gene expression, Treated DA Neuron: .9
  SLC35B1 gene expression, Treated DA Neuron: 1450.4
[8]
  KCNC4 gene expression, Treated DA Neuron: 58.7
  KCND2 gene expression, Treated DA Neuron: 269.9
  KCNF1 gene expression, Treated DA Neuron: 479.7
  KCNG1 gene expression, Treated DA Neuron: 351
  KCNJ4 gene expression, Treated DA Neuron: 66.1
  KCNJ6 gene expression, Treated DA Neuron: 297.7
  KCNJ11 gene expression, Treated DA Neuron: 44.4
  KCNQ3 gene expression, Treated DA Neuron: 23.2
Rectifier K channels, first line for this gene, 4 hours of exposure
  KCNQ2 gene expression, Treated DA Neuron: 1753.5
Rectifier K channels, second line for this gene, 4 hours of exposure
  KCNQ2 gene expression, Treated DA Neuron: 434.4
[9]
  SCN1A gene expression, Treated DA Neuron: 115.6
  SCN3A gene expression, Treated DA Neuron: 60.4
  SCN9A gene expression, Treated DA Neuron: 245.7
Four hours after exposure
  AFF1 expression, Treated Neuron: 1
  ARID3A expression, Treated Neuron: 201
  ASCL2 expression, Treated Neuron: 1
  DDIT3 expression, Treated Neuron: 170
  DLX2 expression, Treated Neuron: 1
  E2F2 expression, Treated Neuron: 63.2
  E2F7 expression, Treated Neuron: 43
  E2F8 expression, Treated Neuron: 1
  EGR1 expression, Treated Neuron: 109
  EGR2 expression, Treated Neuron: 1
  ELF4 expression, Treated Neuron: 1
  ELF5 expression, Treated Neuron: 1
  ELK3 expression, Treated Neuron: 1
  ELK4 expression, Treated Neuron: 1
  EN1 expression, Treated Neuron: 1
  ERG expression, Treated Neuron: 1
  ETS1 expression, Treated Neuron: 1
  ETV1 expression, Treated Neuron: 1
  ETV4 expression, Treated Neuron: 1
  FLI1 expression, Treated Neuron: 11.3
  FOS expression, Treated Neuron: 1980
  FOSB expression, Treated Neuron: 346
  FOXA2 expression, Treated Neuron: 1
  FOXC1 expression, Treated Neuron: 32.6
  FOXD1 expression, Treated Neuron: 1
  FOXF2 expression, Treated Neuron: 1
  FOXL2 expression, Treated Neuron: 1
  FOXM1 expression, Treated Neuron: 27.7
  GATA2 expression, Treated Neuron: 1
  GLI2 expression, Treated Neuron: 5.2
  HCLS1 expression, Treated Neuron: 1
  HEY2 expression, Treated Neuron: 1
  HIRA expression, Treated Neuron: 24.2
  HMGB2 expression, Treated Neuron: 163
  HOXA13 expression, Treated Neuron: 1
  HOXB1 expression, Treated Neuron: 1
  HOXB2 expression, Treated Neuron: 24
  HOXB3 expression, Treated Neuron: 1
  HOXB4 expression, Treated Neuron: 1
  HOXB5 expression, Treated Neuron: 1
  HOXD3 expression, Treated Neuron: 1
  L3MBTL expression, Treated Neuron: 97.7
  LHX8 expression, Treated Neuron: 1
  MEF2C expression, Treated Neuron: 49.8
  MEOX1 expression, Treated Neuron: 1
  MSX2 expression, Treated Neuron: 1
  MYEF2 expression, Treated Neuron: 25.3
  NFATC3 expression, Treated Neuron: 1
  NFATC4 expression, Treated Neuron: 1
  NFKB2 expression, Treated Neuron: 5.3
  NR1D2 expression, Treated Neuron: 1
  NR2C2 expression, Treated Neuron: 5.7
  NR4A2 expression, Treated Neuron: 212
  NRK expression, Treated Neuron: 1
  PAX8 expression, Treated Neuron: 1
  PBX2 expression, Treated Neuron: 1
  PRDM1 expression, Treated Neuron: 1
  PRRX2 expression, Treated Neuron: 1
  RELB expression, Treated Neuron: 31.9
  RUNX1 expression, Treated Neuron: 1
  SALL1 expression, Treated Neuron: 1
  SIX4 expression, Treated Neuron: 5.7
  STAT6 expression, Treated Neuron: 1
  TAF5L expression, Treated Neuron: 17.5
  TAF13 expression, Treated Neuron: 1
  TBX2 expression, Treated Neuron: 1
  TEAD4 expression, Treated Neuron: 1
  TEF expression, Treated Neuron: 23.5
  TGIF1 expression, Treated Neuron: 1
  TP53 expression, Treated Neuron: 23.7
  ZNF85 expression, Treated Neuron: 5.6
  ZNF197 expression, Treated Neuron: 5.1
  ZNF274 expression, Treated Neuron: 1
  ZNF367 expression, Treated Neuron: 1
  ZSCAN29 expression, Treated Neuron: 1
